# Legend:
# Daoy HTB-186 cell line = assay: MTT proliferation assay, Daoy medulloblastoma cells; assay type: cell-based, human; conditions: for proliferation of cultured medulloblastoma cells: monotherapy, nine concentrations 10^-14 to 10^-6 M, 72 hours
# Experimental: (§1) Human medulloblastoma cell line, Daoy was purchased from ATCCC, UW-228 was obtained from the courtesy of Professor Silber (Univerity of Washington, Seattle, Wash., USA).
# (§2) Daoy and UW-228-2 cell lines were maintained in culture medium (each 500 ml Minimum Essential Medium Eagle, Alpha Modification (M8042, Sigma, St Louis, USA) with 50 ml FCS (Gibco), 40 mg Gentamicin (Sandoz), 5 ml sodium-pyruvate (S8636, Sigma, St Louis, USA), 5 ml non-essential-amino acid solution (M7145, Sigma, St Louis, USA), 10 ml L-glutamin (Sigma, St Louis, USA) at 37° C. in humified 5% CO2.
# (§3) In each well 3×10^3 Daoy or UW-228-2 cells were seeded in 96-well plates (Sarstedt), solved in 100 μl of its own medium with 10% FCS. 24 hours after seeding, cells were treated for 72 hours by drugs solved in further 100 μl medium. First, both cell lines were treated by (−)-BPAP and (−)-deprenil in monotherapy to determine its dose-effect curves in concentration of 10^−6, 10^−7, 10^−8, 10^−9, […], 10^−11, 10^−12, 10^−13 and 10^−14 M. In combined treatment 10^−3, 3.3×10^−4, […] and 3.7×10^−5 M of temozolomide (Schering Plough, USA) or 0.04, 0.2, 1, 5 μM of Cisplatin (Ebewe Pharma, Austria) or 0.04, 0.2, 1, 5 μM of etoposide (Ebewe Pharma, Austria) or 10^−7, 10^−6, 10^−5 and 10^−4 μM (UW228-2) or 0.001, 0.005, 0.025 and 0.125 μM (Daoy) of Vincristin (Richter Gedeon, Hungary) were applied in monotherapy or combined with 10^−13 or 10^−8 M of (−)-BPAP or (−)-deprenil.
# (§4) Cell proliferation was evaluated by MTT (3-(4,5-Dimethylthiazol-2-yl)-2,5-diphenyltetrazolium bromide) assay (M5655, Sigma) after 72-hour treatment by the method described in manufacturer's protocol.
# UW-228-2 cell line = assay: MTT proliferation assay, UW-228-2 medulloblastoma cells; assay type: cell-based, human; conditions: for proliferation of cultured medulloblastoma cells: UW-228-2, monotherapy, nine concentrations 10^-14 to 10^-6 M, 72 hours
# Experimental: as §1, §2, §3, §4
# [1] = system: mouse lung adenocarcinoma tumors; assay: Mouse lung adenocarcinoma xenograft model in Balb/c nude mice; assay type: in vivo
# Experimental: Mouse primary lung adenocarcinoma tumors maintained subcutaneously were utilized in the present study. Tumors with sizes of 3 mm in diameter were implanted subcutaneously in a total of 18 FVB/N female mice with a bodyweight of 25 g. From the day after tumor inoculation, 6-6 animals started receiving (−)-BPAP daily as a subcutaneous injection at a concentration of either 0.0001 mg/kg (low dose) or 0.05 mg/kg (high dose). Tumor sizes were measured twice a week using a digital caliper. Tumor volumes were calculated by the following formula: […]
# Statistical analyses were made by Graphpad Prism 4.03 software. Significances of changes between control and (−)-BPAP-treated groups were assessed by using Mann-Whitney U-test. Significance was declared at the standard p<0.05 level.
# Next, the same experiment was repeated using 18 Balb/c nude mice to explore whether the adaptive immune system plays a role in the tumor suppressor action of (−)-BPAP.
# [2] = system: mouse colon carcinoma cells (C38); assay: Mouse colon carcinoma (C38) spleen inoculation, liver metastasis; assay type: in vivo; conditions: 0.0001 mg/kg s.c. daily from one week before inoculation, day 23, p<0.05
# Experimental: In this study 30.000 mouse colon carcinoma cells (C38) were inoculated into the spleen of C57BI/6 mice and macroscopic liver metastasis observed on day 23 after inoculation. In the experiment a group of mice pretreated daily subcutaneously for one week with 0.0001 mg/kg BPAP prior to the inoculation of 30.000 cells/animal and further treated until the end of the experiment (23rd day) whereas the control animals have not received BPAP.
# [3] = system: catecholaminergic neurons; assay: Comparison of CAE potency
# Text: All these differences in the efficiency between BPAP and Deprenyl came together from measuring their enhancer effect on the following four enhancer-sensitive brain regulations: dopaminergic, noradrenergic, serotonergic and TMS. Using the enhancer substances as specific experimental tools, we quite unexpectedly discovered the operation of an enhancer-sensitive TMS regulation in the rat brain. As expected, the majority of the enhancer-sensitive regulations and the endogenous enhancer substances pertaining to these regulations are unknown. Enhancer-research is obviously in its pioneer stage.
# isolated rat brain stem = conditions: optimal concentration for the specific enhancer effect, 3-min collection period; review Knoll, 2005; cited from earlier work
# MAO-B = target: T1, MAO-B (Rattus norvegicus, UniProt P19643); conditions: in vivo; cited from earlier work
# T1 construct: from tissue; host or cells: brain, in vivo dosing
# T1 sequence (P19643 1-520): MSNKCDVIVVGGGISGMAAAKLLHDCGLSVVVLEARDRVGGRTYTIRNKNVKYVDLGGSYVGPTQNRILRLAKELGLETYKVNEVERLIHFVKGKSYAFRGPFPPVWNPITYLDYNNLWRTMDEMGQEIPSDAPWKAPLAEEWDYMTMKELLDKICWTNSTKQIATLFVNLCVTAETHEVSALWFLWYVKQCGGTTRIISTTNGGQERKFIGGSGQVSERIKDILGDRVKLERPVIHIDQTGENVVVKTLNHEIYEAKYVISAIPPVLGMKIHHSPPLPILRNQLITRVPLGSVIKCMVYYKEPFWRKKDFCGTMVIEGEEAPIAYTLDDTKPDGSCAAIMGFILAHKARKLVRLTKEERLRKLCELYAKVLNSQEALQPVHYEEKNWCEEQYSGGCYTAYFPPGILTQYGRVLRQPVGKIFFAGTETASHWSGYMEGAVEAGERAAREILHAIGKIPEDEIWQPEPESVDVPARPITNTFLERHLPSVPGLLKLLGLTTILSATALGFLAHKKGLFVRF
smiles,measurement,setting,value
"CCCN[C@H](CCC)Cc1cc2ccccc2o1 [(−)-BPAP, (2R)-1-(1-benzofuran-2-yl)-N-propylpentane-2-amine]",effectiveness of tumor-cell proliferation inhibiting agents in combination,"Daoy HTB-186 cell line; 10^-13 or 10^-8 M combined with temozolomide, Cisplatin, etoposide or Vincristin",did not change the effectiveness
same,proliferation of cultured medulloblastoma cells,Daoy HTB-186 cell line,did not inhibit the proliferation
same,proliferation of cultured medulloblastoma cells,Daoy HTB-186 cell line; listed as BPAP,none of the applied concentrations did Deprenyl or BPAP influence the proliferation
same,effectiveness of tumor-cell proliferation inhibiting agents in combination,"UW-228-2 cell line; UW-228-2, 10^-13 or 10^-8 M combined with temozolomide, Cisplatin, etoposide or Vincristin",did not change the effectiveness
same,proliferation of cultured medulloblastoma cells,UW-228-2 cell line,did not inhibit the proliferation
same,proliferation of cultured medulloblastoma cells,UW-228-2 cell line; listed as BPAP,none of the applied concentrations did Deprenyl or BPAP influence the proliferation
same,tumor size versus control,[1]; high dose 0.05 mg/kg s.c. daily,did not cause significant changes in tumor size
same,tumor growth (tumor volume) versus control,[1]; low dose 0.0001 mg/kg s.c. daily,significant inhibition of tumor growth
same,number of macroscopic liver metastasis,[2],2 tumors/liver
same,potency as CAE substance relative to Deprenyl,[3],~100 times
same,"released amount of labeled transmitter ([3H]-norepinephrine, [3H]-dopamine or [3H]-serotonin)",isolated rat brain stem,significantly higher
same,MAO-B inhibitory potency,MAO-B,devoid of MAO-B inhibitory potency

# Source: patent publication US10258599B2, “Compounds for use in the prevention or treatment of cancer” (SEMMELWEIS UNIVERSITY, priority 2014, dated 2019)
